Measurements reported in US5229109A, “Low toxicity interleukin-2 analogues for use in immunotherapy” (priority 1992, dated 1993).

Tests used:
[1] = test system: peripheral blood mononuclear cells (IL-1β secretion); assay: IL-1β secretion by PBMC, ELISA of LAK culture supernatants; type: cell-based, human; details: for IL-1β secretion decreased: maximal decrease vs native IL-2, supernatants at 24 hour intervals up to 7 days
Protocol: (§1) The abilities of the same concentrations of IL-2 and the analogues to stimulate peripheral blood mononuclear cells to secrete IL-1β and TNF-α in vitro were first compared. At 24 hour intervals up to 7 days, the LAK culture supernatants from the above-described experiment were collected and tested for IL-1β and TNF-α content using ELISA methodology. Commercially available ELISA kits were purchased from R & D Systems (TNF-α and TNF-β ), Immunotech (IL-1α and IL-1β), and Endogen (IFN-γ). The ELISAs were performed according to the protocols supplied by the manufacturer.
(§2) Fresh peripheral blood mononuclear cells (PBMC) obtained from leukopharesis of normal human donors were isolated over a Ficoll-Hypaque gradient. […] Non-adherent cells were tested for cytotoxicity against Daudi targets by a 4 hour ^51 Cr release assay, with specific lysis being presented as the mean of triplicate values. Cell-free supernatants from 3 day PBMC cultures were analyzed by ELISA for cytokine content.

[2] = test system: peripheral blood mononuclear cells (TNF-α secretion); assay: TNF-α secretion by PBMC, ELISA of LAK culture supernatants; type: cell-based, human; details: for TNF-α decreased: maximal decrease vs native IL-2, supernatants at 24 hour intervals up to 7 days
Protocol: as §1, §2

Daudi targets = assay: LAK generation, 4 hour 51Cr release cytotoxicity assay; type: cell-based, human; details: 100:1 effector:target ratio; 0.5 nM native IL-2 or 1 nM mutants
Protocol: The abilities of optimal concentrations of IL-2 and the analogues to stimulate peripheral blood mononuclear cells to generate lymphokine activated killing (LAK) in vitro were next compared.
as §2

[3] = test system: IL-2 receptor p55 on PBMC; assay: FACS analysis of p55 expression on cultured PBMC; type: cell-based, human; details: cultures stimulated for 72 hours
Protocol: Cultured PBMC were washed with PBS, 1% bovine serum albumin (BSA), and 0.1% sodium azide. To approximately one million cells, FITC-labelled monoclonal antibody against IL-2 receptor p55 or a non-specific control mouse IgG (Becton-Dickinson) was added. Following incubation for 30 minutes, the cells were washed twice using a Sorvall cell washer 2L, then fixed in PBS and 1% paraformaldehyde. The cells were then analyzed on Becton-Dickinson FACScan and results were presented as per cent of gated cells positive for p55 after subtraction of non-specific background fluorescence.

IL-2 receptor p75 = target: T1, IL-2 receptor p75 (Homo sapiens, UniProt P14784); assay: IL-2 specific binding assay, intermediate affinity receptor
T1 construct: Each assay contained approximately 6×10^5 cells; endogenous in cells
T1 sequence (P14784 27-551): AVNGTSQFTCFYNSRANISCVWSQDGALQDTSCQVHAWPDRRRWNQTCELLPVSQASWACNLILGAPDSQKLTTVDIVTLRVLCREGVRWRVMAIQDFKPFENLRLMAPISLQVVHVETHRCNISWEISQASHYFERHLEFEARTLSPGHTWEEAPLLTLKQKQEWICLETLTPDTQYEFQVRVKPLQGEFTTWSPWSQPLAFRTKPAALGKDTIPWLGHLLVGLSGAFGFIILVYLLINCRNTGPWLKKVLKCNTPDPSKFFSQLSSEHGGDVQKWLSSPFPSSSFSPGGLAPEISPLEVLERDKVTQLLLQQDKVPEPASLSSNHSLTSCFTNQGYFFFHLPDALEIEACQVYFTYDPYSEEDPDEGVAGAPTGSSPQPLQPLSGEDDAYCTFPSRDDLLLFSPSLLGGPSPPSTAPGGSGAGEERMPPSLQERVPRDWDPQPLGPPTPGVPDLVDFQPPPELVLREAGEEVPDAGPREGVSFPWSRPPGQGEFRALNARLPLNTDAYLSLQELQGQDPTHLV
T1 sequence (P31785 23-369 partner): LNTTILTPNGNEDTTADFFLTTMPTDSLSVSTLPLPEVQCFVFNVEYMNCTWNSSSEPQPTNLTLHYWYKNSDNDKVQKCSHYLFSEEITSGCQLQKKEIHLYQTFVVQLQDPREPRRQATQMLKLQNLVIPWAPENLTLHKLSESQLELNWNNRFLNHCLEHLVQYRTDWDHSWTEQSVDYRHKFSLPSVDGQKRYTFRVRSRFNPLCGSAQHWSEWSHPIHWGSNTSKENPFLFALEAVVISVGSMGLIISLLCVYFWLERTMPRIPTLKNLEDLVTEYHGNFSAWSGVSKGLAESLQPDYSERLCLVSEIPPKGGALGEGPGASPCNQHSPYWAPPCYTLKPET
Protocol: The cells were then incubated for 1 hour at 37° C. and the washing procedure was repeated three times. […] Nonspecific binding was determined by inclusion of 50 nM unlabeled human rIL-2 in the assay. Incubations were carried out in duplicate or triplicate for 20 minutes at 37° C.

[4] = target: T2, low affinity receptor p55 (Homo sapiens, UniProt P01589); details: Sauve et al., 1991; cited from earlier work
T2 sequence (P01589 22-272): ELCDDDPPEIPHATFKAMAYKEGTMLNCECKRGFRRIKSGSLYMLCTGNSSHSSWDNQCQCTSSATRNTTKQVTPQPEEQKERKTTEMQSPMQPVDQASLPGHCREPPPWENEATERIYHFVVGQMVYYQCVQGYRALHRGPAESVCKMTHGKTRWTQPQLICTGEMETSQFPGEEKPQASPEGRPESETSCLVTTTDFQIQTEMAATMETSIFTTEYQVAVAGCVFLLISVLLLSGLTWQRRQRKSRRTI

[5] = target: T3, intermediate receptor p75 (Homo sapiens, UniProt P14784); details: Sauve et al., 1991; cited from earlier work
T3 sequence (P14784 27-551): T1 sequence (P14784 27-551)
T3 sequence (P31785 23-369 partner): T1 sequence (P31785 23-369 partner)

[6] = all time points, p<0.05, 3-way ANOVA

Substance: F42K: recombinant human IL-2 analogue, Phenylalanine (F) at position 42→Lysine (K)
- IL-1β compared to that produced in response to native IL-2 [1, 6]: significantly decreased
- IL-1β secretion decreased [1]: up to 43%
- TNF-α compared to that produced in response to native IL-2 [2, 6]: significantly decreased
- TNF-α decreased [2]: ≤ 77%
- % maximal specific lysis (Daudi targets): 54%
- percentage of cells expressing p55 [3]: 30%
- percentage of cells expressing p55 doubled [3]: doubled
- ability to bind IL-2 receptor p75 (IL-2 receptor p75): maintain their ability to bind
- binding to the low affinity receptor p55 [4]: could no longer bind
- affinity for the intermediate receptor p75 [5]: maintained their affinity

Substance: R38A
- IL-1β secretion decreased [1]: ≤ 28%
- TNF-α decreased [2]: ≤ 66%
- % maximal specific lysis (Daudi targets): 55%
- ability to bind IL-2 receptor p75 (IL-2 receptor p75): maintain their ability to bind
- binding to the low affinity receptor p55 [4]: could no longer bind
- affinity for the intermediate receptor p75 [5]: maintained their affinity
